According to US10725042B2, “Methods of diagnosing and treating cancer” (Case Western Reserve University, priority 2012, dated 2020):

Tests used:
[1] = system: uracil in DNA of UDG−/− cells; test: Uracil in DNA by HPLC/MS/MS, UDG−/− cells; assay type: cell-based, human
Protocol: UDG^−/− and UDG^+/+ cells were exposed to pemetrexed (10 μM) or 5-fluorouracil (10 μM) for 6, 24, 48 and 72 hrs. At indicated time points, cells were harvested and genomic DNA was extracted by phenol/chloroform. Forty μg of DNA were incubated with 10 U of purified UDG (New England Biolabs) in 60 μL of reaction buffer at 37° C. for 2 hrs. The reaction products were dried at 35° C. in a Turbovap under a stream of nitrogen and reconstituted in 150 μL 90% acetonitrile. The analyte was retained by an Atlantis Hilis Silica analytical column (2.1×100 mm, 3.5 μM) and eluted isocratically by a mixture of 90% acetonitrile and 10% 2.0 mM ammonium formate at a flow rate of 0.2 ml/min. The detection was done by an API 3200 MS/MS mass spectrometer.

H1299/PR-2 cells = test: Colony survival assay, H1299/PR-2 pemetrexed-resistant subline; assay type: cell-based, human; conditions: PR-2 vs H1299 parental
Protocol: For cells in suspension, colony survival was determined by crystal violet staining of colonies formed after 10-day exposure of 5×10^3 cells to pemetrexed in soft agar. For adherent cells, colony survival was determined by methylene blue staining of colonies formed after 10-day exposure of 100 cells to pemetrexed in 6-well culture dishes. Only colonies containing ≥50 cells were counted. Data points represent percent of colonies relative to untreated control averaged over 3 experiments.
H1299 cells were exposed to step-wise increasing concentrations of pemetrexed over a period of 4 months. UNG expression was monitored in the bulk population at 2, 8, 12 and 16 weeks prior to administration of the induction dosage and at 24 weeks in a population of bulk chronically exposed cells that had been without pemetrexed for 8 weeks. H1299 cells capable of growth in 50 nM pemetrexed selection pressure were subcloned by limiting dilution in 96 well plates. Independent sublines were designated H1299/PR-1 and H1299/PR-2.

SMILES: Nc1nc2[nH]cc(CCc3ccc(C(=O)N[C@@H](CCC(=O)O)C(=O)O)cc3)c2c(=O)[nH]1 [pemetrexed]
- uracil detected in DNA ([1]; UDG−/− cells, drug 10 μM, 6-72 hr): significant amount of uracil
- uracil accumulation compared to UNG+/+ controls ([1]; UNG−/− human cancer cells exposed to pemetrexed): up to 40 fold
- relative resistance to pemetrexed compared to parental cells (H1299/PR-2 cells): 71 fold
